The text below walks through data of patent publication US20170274032A1, “PHARMACEUTICAL COMPOSITIONS FOR TREATING ANXIETY” (Beijing Wonner Biotech. Ltd. Co., priority 2007, published 2017).

The subject of data set [1] is Kunming (KM) mice. The data set can be described thus: Mouse light-dark transition experiment (Experiment 1). It counts as in vivo. The source says: 1.1 Experimental animals: Kunming (KM) mice, male, 24˜26 g of body weight, secondary, are provided by the Experimental Animal Science Department of Capital Medical University, Beijing.
1.2 Experimental pharmaceuticals: The pharmaceutical of Embodiment 1 is provided by Beijing Wonner Biotech. Ltd. Co., and Diazepam is the product of Tianjin Jinhuei Amino Acid Co. Ltd.
1.3 Experimental equipment: Self-made light-dark transition box.
1.5.1 Group division and administration of drug: The mice are grouped randomly as 5 groups, and 10 mice are in each group. 1. High dose of Embodiment 1 (80 mg/kg); 2. middle dose of Embodiment 1 (40 mg/kg); 3. low dose of Embodiment 1 (20 mg/kg); 4. Diazepam (2.5 mg/kg); and 5. physiological saline (normal saline, NS). […]
(§1) Mouse light-dark transition test: The dark chamber occupies one third of the light-dark transition chamber (44 cm×21 cm×21 cm), and the top is capped. […] The times that the mouse enters into the dark chamber and returns to the light chamber within 10 minutes are determined, and the times thereof are the index for evaluating the anti-anxiety function of the drugs.
1.5.3 Statistic calculation: The experimental data are represented as X±SD, and the experimental result is calculated as one-way analysis of variance (one-way ANOVA) by SPSS 11.5 statistic software.

Data set [2] relates to Kunming (KM) mice. The data set can be described thus: Mouse light-dark transition experiment (Experiment 2). It counts as in vivo. The procedure:
2.1 Experimental animals: Kunming (KM) mice, male, 24˜26 g of body weight, secondary, are provided by the Experimental Animal Science Department of Capital Medical University, Beijing.
2.2 Experimental pharmaceuticals: The pharmaceutical of Embodiment 4 is provided by Beijing Wonner Biotech. Ltd. Co., and Diazepam is the product of Tianjin Jinhuei Amino Acid Co. Ltd.
2.3 Experimental equipment: Self-made light-dark transition box.
2.4 Dose designs: 1. High dose of Embodiment 4 (80 mg/kg/d); 2. middle dose of Embodiment 4 (40 mg/kg/d); and 3. low dose of Embodiment 4 (20 mg/kg/d).
2.5.1 Group division and administration of drug: The mice are grouped randomly as 5 groups, and 10 mice are in each group. 1. High dose of Embodiment 4 (80 mg/kg); 2. middle dose of Embodiment 4 (40 mg/kg); 3. low dose of Embodiment 4 (20 mg/kg); 4. […]
as §1
2.5.3 Statistic calculation: The experimental data are represented as X±SD, and the experimental result is calculated as one-way ANOVA by SPSS 11.5 statistic software.

For data set [3] the following is noted: in the human body; cited from earlier work.
The mark [4] stands for this setting: 2.5 mg/kg, fed into the stomach once daily for 7 days, test 1 hour after last administration, within 10 minutes, X±SD, 10 mice.

Turning to `CN1C(=O)CN=C(c2ccccc2)c2cc(Cl)ccc21` [Diazepam], the figures for the “Times of passing from dark chamber to light chamber” value with Kunming (KM) mice [1] (setting [4]) and in the data set on Kunming (KM) mice [2] (setting [4]) were 11.3 ± 4.54 and 11.7 ± 4.47, respectively. Moreover, the “Effect on the times that the mouse passes from the dark chamber to the light chamber, in words” value is recorded as “significantly increase” with Kunming (KM) mice [1] (compared with physiological saline, high, middle and low doses of Embodiment 1, Diazepam 2.5 mg/kg); “significantly increase” in the data set on Kunming (KM) mice [2] (compared with normal saline, high, middle and low doses of Embodiment 4, Diazepam 2.5 mg/kg).

As for `CC1(C)[C@@H](O[C@H]2O[C@H](C(=O)O)[C@@H](O)[C@H](O)[C@H]2O[C@@H]2O[C@H](C(=O)O)[C@@H](O)[C@H](O)[C@H]2O)CC[C@]2(C)[C@H]3C(=O)C=C4[C@@H]5C[C@@](C)(C(=O)O)CC[C@]5(C)CC[C@@]4(C)[C@]3(C)CC[C@@H]12` [glycyrrhizic acid], the “Efficiency of conversion of glycyrrhizic acid to glycyrrhetinic acid” value in data set [3] was approximately 100%.
